Several values for one entry are separate records, joined by “and”; a condition that tells them apart may be missing. Equal values may be shown once. Entries after “also recorded” stand apart in the source; their conditions may differ.
Assays:
[1] = system: human liver cancer MHCC97H cell xenograft tumor; test: In vivo efficacy, MHCC97H subcutaneous xenograft tumor model; parameters: species or system BALB/c nude mice; details: for tumor volume (24th day): 24th day after administration, average value±SEM; for T/C / TGI: based on the tumor volume on the 24th day after administration
Procedure: MHCC97H cells were cultured in a single layer in-vitro. The culturing condition was RPMI1640 medium supplemented with 10% heat-inactivated fetal bovine serum, 1% penicillin-streptomycin double antibody under 37° C., 5% carbon dioxide. Digestion and passage treatment with trypsin-EDTA was done twice a week. When the cells were in the exponential growing phase, the cells were collected, counted and inoculated.
BALB/c nude mice, male. 6-8 weeks old, weighting 18-22 g.
0.2 mL of a cell suspension containing 5×10^6 MHCC97H was subcutaneously inoculated into the right back of each mouse. Drugs were administered by group after the average tumor volume reached approximately 172 mm^3.
Investigation of whether the tumor growth was inhibited, delayed or cured. The diameters of the tumor were measured twice a week using a vernier caliper. The formula for calculating the tumor volume is V=0.5a×b^2, and a and b represent the long and short diameters of the tumor respectively. The antitumor effect (TGI) of the compound was evaluated by T-C (days) and TIC (%).
Remark: a. average value±SEM; b. p value was calculated based on the tumor volume.

[2] = Liver microsome metabolism, human; type: in vitro ADME
[3] = Liver microsome metabolism, rat; type: in vitro ADME
[4] = Liver microsome metabolism, mouse; type: in vitro ADME
MHCC97-H cells [5] = details: read-out: IC50 on MHCC97-H cells; background section; cited from earlier work
MHCC97-H cells [6] = system: MHCC97-H cells
Procedure: The cell plates were incubated in a carbon dioxide incubator for 3 days.

[7] = Stability test of the crystal forms (HPLC impurity content); type: physicochemical; details: for Impurity content, relative retention time 0.93 / Impurity content, relative retention time 1.07 / Total impurities / Impurity content, relative retention time 0.99 / Impurity content, relative retention time 1.39 / Impurity content, relative retention time 1.48 / Impurity content, relative retention time 1.05 / Impurity content, relative retention time 1.43: form A
Procedure: The method for High Performance Liquid Chromatograph (HPLC) in the present disclosure
Instrument Model: Agilent 1200 High Performance Liquid Chromatograph
The analysis method is as follows: […]
About 10 mg of the crystal form B of the compound represented by formula (II) was weighted and placed under stability test conditions, and the samples were collected and analyzed after 5 days, 10 days, and 1 month.
About 10 mg of the crystal form C of the compound represented by formula (III) was weighted and placed under stability test conditions, and the samples were collected and analyzed after 5 days, 10 days, and 1 month respectively.

[8] = Hygroscopicity study (weight gain over saturated ammonium chloride solution, 25° C., 24 hours); type: physicochemical
Procedure: The hygroscopicity was evaluated using the scales in the following Table 4:
3 dry glass weighing bottles with stopper (outer diameter of 50 mm, height of 30 mm) were placed in a desiccator having saturated ammonium chloride solution placed at the bottom, the weighing bottles were left open, and the desiccator was covered with lid, placed in a thermostat setting at 25° C. overnight.
The weighing bottles were took out and accurately weighed, the weight data were noted as m11, m12 and m13 respectively.
An appropriate amount of the crystal form A of the compound represented by formula (I), was spread in the weighed weighing bottles (the thickness of the sample was about 1 mm), and then accurately weighed, the weight data were noted as m21, m22 and m23, respectively.
The open weighing bottles and the bottle stoppers were placed in a desiccator having saturated ammonium chloride solution placed at the bottom, and the desiccator was covered with a lid, placed in a thermostat setting at 25° C. for 24 hours.
After standing for 24 hours, the weighing bottles were closed with the stoppers, then accurately weighed, and the weight data were noted as m31, m32 and m33.
Hygroscopicity weight gain was calculated, the calculation formula was as follows: Percentage gain=100%×(m3−m2)/(m2−m1)

[9] = Solubility test in different solvents; type: physicochemical; details: 25° C.±2° C.
Procedure: 10 mg of the crystal form A of the compound represented by formula (I) was placed into a glass bottle, 1 mL of solvent was added thereto and the bottle was shaken vigorously for 30 seconds every 5 minutes at 25° C.±2° C., the dissolution was observed over 30 minutes. The corresponding data were recorded in the table.
For insoluble samples, another 1 mg of the crystal form A of the compound represented by formula (I) was placed into a glass bottle, an appropriate solvent was added thereto, and the bottle was shaken vigorously for 30 seconds every 5 minutes at 25° C.±2° C., the dissolution was observed over 30 minutes. The corresponding data were recorded in Table 10.

[10] = Stability test of the crystal forms (HPLC impurity content); type: physicochemical; details: form A, 5 days
[11] = liver microsomes, read-out: t1/2 by liver microsome metabolism
[12] = 40° C. Relative humidity 75%, 1 month
[13] = 40° C. Relative humidity 75%, 2 months
[14] = 40° C. Relative humidity 75%, 10 days
[15] = 60° C. Relative humidity 75%, 1 month
[16] = 60° C. Relative humidity 75%, 2 months
[17] = 60° C. Relative humidity 75%, 10 days
[18] = Light (total illuminance = 1.2 × 106 Lux · hr/near ultraviolet = 200 w · hr/m^2)
[19] = Relative humidity 92.5%, 5 days
[20] = Relative humidity 92.5%, 10 days

## CN1CCC(COc2cnc(-c3cccc(Cn4nc(-c5cccc(C#N)c5)ccc4=O)c3)nc2)CC1 [Tepotinib, reference compound]
[1]
  tumor volume (24th day): 255 ± 5 mm^3
  T/C: 12.4%
  TGI: 95.6%
[2]; [11]
  half-life: 48.3 min
[3]; [11]
  half-life: 10.5 min
[4]; [11]
  half-life: 12.4 min
MHCC97-H cells [5]
  IC50: 6.2 nM

## C[C@H](c1cccc(-c2ncc(OCC3CCN(C)CC3)cn2)c1)n1cc(-c2cc(C#N)ccn2)cc(F)c1=O [compound represented by formula (I)]
MHCC97-H cells [6]
  Inhibitory activity on MHCC97H cell, in words: good inhibitory activity
[1]
  tumor volume (24th day): 153 ± 12 mm^3
  T/C: 7.4%
  TGI: 101.0%
[1]; MHCC97H liver cancer cell subcutaneous xenograft tumor model
  Tumor inhibitory effect compared with tepotinib, in words: better tumor inhibitory effect than tepotinib
[2]
  t1/2 by liver microsome metabolism: 62.1 min
[3]
  t1/2 by liver microsome metabolism: 36.5 min
[4]
  t1/2 by liver microsome metabolism: 49.1 min

## C[C@H](c1cccc(-c2ncc(OCC3CCN(C)CC3)cn2)c1)n1cc(-c2cc(C#N)ccn2)cc(F)c1=O [crystal form A of the compound represented by formula (I)]
[7]; 0 day
  Impurity content, relative retention time 0.93: 0.14%
  Impurity content, relative retention time 1.07: 0.52%
  Total impurities: 0.67%
[7]; [12]
  Impurity content, relative retention time 0.93: 0.12%
  Impurity content, relative retention time 1.07: 0.45%
  Total impurities: 0.63%
[7]; [13]
  Impurity content, relative retention time 0.93: 0.15%
  Impurity content, relative retention time 1.07: 0.52%
  Total impurities: 0.66%
[7]; [14]
  Impurity content, relative retention time 0.93: 0.14%
  Impurity content, relative retention time 1.07: 0.5%
  Total impurities: 0.58%
[7]; [15]
  Impurity content, relative retention time 0.93: 0.13%
  Impurity content, relative retention time 1.07: 0.49%
  Total impurities: 0.62%
[7]; [16]
  Impurity content, relative retention time 0.93: 0.17%
  Impurity content, relative retention time 1.07: 0.59%
  Total impurities: 0.75%
[7]; [17]
  Impurity content, relative retention time 0.93: 0.14%
  Impurity content, relative retention time 1.07: 0.53%
  Total impurities: 0.67%
[7]; 60° C., 5 days
  Impurity content, relative retention time 0.93: 0.12%
  Impurity content, relative retention time 0.99: 0.13%
  Impurity content, relative retention time 1.07: 0.47%
  Impurity content, relative retention time 1.39: 0.17%
  Impurity content, relative retention time 1.48: 0.1%
[7]; 60° C., 10 days
  Impurity content, relative retention time 0.93: 0.12%
  Impurity content, relative retention time 0.99: 0.19%
  Impurity content, relative retention time 1.05: 0.14%
  Impurity content, relative retention time 1.07: 0.45%
  Impurity content, relative retention time 1.39: 0.41%
  Impurity content, relative retention time 1.43: 0.11%
  Impurity content, relative retention time 1.48: 0.23%
  Total impurities: 1.64%
[7]; [18]
  Impurity content, relative retention time 0.93: 0.11%
  Impurity content, relative retention time 0.99: 0.29%
  Impurity content, relative retention time 1.05: 0.8%
  Impurity content, relative retention time 1.07: 0.46%
  Impurity content, relative retention time 1.39: 3.98%
  Impurity content, relative retention time 1.43: 1.18%
  Impurity content, relative retention time 1.48: 1.62%
  Total impurities: 13.45%
[7]; [19]
  Impurity content, relative retention time 0.93: 0.14%
  Total impurities: 0.67%
[7]; [20]
  Impurity content, relative retention time 0.93: 0.14%
  Impurity content, relative retention time 1.07: 0.52%
  Total impurities: 0.67%
[7]; stress conditions (high temperature, high humidity, light)
  Stability, conclusion in words: good stability
[8]; 25° C., 24 hours over saturated ammonium chloride solution, mean of 3 samples
  Average value of percentage gain (average hygroscopicity): 0.060%
[8]; 25° C., 24 hours over saturated ammonium chloride solution, samples No. 1-3
  Percentage gain (hygroscopic weight gain), single samples: 0.03% and 0.08% and 0.07%
[8]; classified by the average weight gain
  Hygroscopicity scale: no or almost no hygroscopicity
[9]; 0.1N HCl
  Solubility classification: Soluble
[9]; 0.1N NaOH
  Solubility classification: practically insoluble or insoluble; also recorded: Practically insoluble
[9]; Acetonitrile
  Solubility classification: Very slightly soluble
[9]; Diethylamine
  Solubility classification: practically insoluble or insoluble; also recorded: Practically insoluble
[9]; Ethanol
  Solubility classification: very slightly soluble
[9]; Ethyl acetate
  Solubility classification: Very slightly soluble
[9]; N-Methylpyrrolidone
  Solubility classification: Very soluble
[9]; Tetrahydrofuran
  Solubility classification: Sparingly soluble
[9]; Trifluoroacetic acid
  Solubility classification: Sparingly soluble
[9]; acetone
  Solubility classification: Slightly soluble
[9]; n-Hexane
  Solubility classification: practically insoluble or insoluble; also recorded: Practically insoluble
[9]; water
  Solubility classification: Very soluble
[10]; 60° C.
  Total impurities: 0.99%
[10]; Relative humidity 92.5%
  Impurity content, relative retention time 1.07: 0.53%

Reference: patent publication US11465986B2, “Crystal form of c-MET inhibitor and salt form thereof and preparation method therefor” (FUJIAN AKEYLINK BIOTECHNOLOGY CO., LTD., priority 2018, dated 2022)
